Assay results reported in patent publication US9981950B2, “Triazoles as NR2B receptor inhibitors” (Janssen Pharmaceuticals, Inc., priority 2014, dated 2018).

Experiments:
[1] = biological target: T1, rat NR1/NR2B receptor (Rattus norvegicus (Rat), UniProt P35439+Q00960); test: NR2B binding assay: inhibition of specific [3H]-Ifenprodil binding to the rat NR1/NR2B receptor; conditions: rat brain membranes, Hill-plot 2-parameter-model
Experimental: Inhibition of Specific Binding to the Rat NR1/NR2B Receptor
Male Wistar rats (180 to 200 g) were killed by suffocation in a CO2 chamber for two minutes. Whole brains without cerebellum were removed and dissected on ice, placed into closed vials and stored at −70° C.
Membrane fractions were prepared and tested using standard techniques. At the time of the assay, 1 g of the brains was placed into 25 ml of 50 mM Tris/10 mM EDTA buffer, pH 7.1, (25 vol. per g of original tissue) and homogenized for 30 sec at 20000 rpm with an Ultraturrax T25 (Jahnke & Kunkel, IKA-Labortechnik, Staufen, Germany). The homogenate was centrifuged at 4° C. for 10 min at 48000 g (OPTIMA L-70, Beckman, Palo Alto, Calif. 94304, USA).
The supernatant was discarded and the pellet was homogenized on ice for 30 sec at 20000 rpm with an Ultraturrax and again centrifuged at 48000 g for 30 minutes at 4° C. The resulted pellet was resuspended in 25 ml of 50 mM Tris/10 mM EDTA buffer, homogenized for 30 sec with an Ultraturrax, aliquoted, frozen at −70° C. and stored until use.
After thawing on the day of the assay, a 5 ml membrane aliquot was centrifuged at 48000 g for 30 min at 4° C. The pellet was resuspended in 5 ml of 5 mM Tris/1 mM EDTA buffer, pH 7.4, homogenized for 30 sec at 20000 rpm with an Ultraturrax and centrifuged at 48000 g for 30 min at 4° C. This was repeated twice. The final pellet was homogenized in 5 ml of 5 mM Tris/l mM EDTA buffer at 4° C. with an Ultraturrax and used for the Ifenprodil-binding assay as described in the following.
Nonspecific binding was estimated in the presence of […] CP101.606. The samples were incubated for 60 min. at 4° C.
The incubation was terminated by filtration of the membrane preparations using Filtermat B (Pharmacia, Uppsala Sweden) and a Micro Cell Harvester (Skatron, Lier, Norway). The Filtermat B had been presoaked with 1% polyethylene imine and carefully washed with 50 mM Tris/HCl-buffer pH 7.7 after the filtration to separate free and bound radioactivity.
The optimal amount of membrane preparation in the assay had been determined and optimized for each membrane preparation separately before the test.
For pipetting of the incubation mixture we routinely used the robot Biomek2000 (Fa. Beckman).
For determination of IC50 values the Hill-plot, 2-parameter-model was used.

[2] = biological target: T1, rat NR1/NR2B receptor; test: RRNR2BB: inhibition of specific binding to the rat NR1/NR2B receptor; conditions: [3H]-Ifenprodil binding, rat brain membranes, Hill-plot 2-parameter-model
Outline: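 Washed membranes from male Wistar rat forebrain (whole brain minus cerebellum) in 5 mM Tris/1 mM EDTA pH 7.4 used in ifenprodil-site binding, 60 min at 4° C. Nonspecific binding defined with […] CP101.606; bound separated by filtration on PEI-soaked filters. IC50 from Hill plot, 2-parameter model.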

[3] = biological target: hERG-receptor (Homo sapiens (Human), UniProt Q12809); test: HERGBD: inhibition of specific 3H-Dofetilide binding to the hERG-receptor; conditions: HEK cell membranes with human ERG, Hill-plot 2-parameter-model
hERG-receptor, sequence (Q12809 whole entry): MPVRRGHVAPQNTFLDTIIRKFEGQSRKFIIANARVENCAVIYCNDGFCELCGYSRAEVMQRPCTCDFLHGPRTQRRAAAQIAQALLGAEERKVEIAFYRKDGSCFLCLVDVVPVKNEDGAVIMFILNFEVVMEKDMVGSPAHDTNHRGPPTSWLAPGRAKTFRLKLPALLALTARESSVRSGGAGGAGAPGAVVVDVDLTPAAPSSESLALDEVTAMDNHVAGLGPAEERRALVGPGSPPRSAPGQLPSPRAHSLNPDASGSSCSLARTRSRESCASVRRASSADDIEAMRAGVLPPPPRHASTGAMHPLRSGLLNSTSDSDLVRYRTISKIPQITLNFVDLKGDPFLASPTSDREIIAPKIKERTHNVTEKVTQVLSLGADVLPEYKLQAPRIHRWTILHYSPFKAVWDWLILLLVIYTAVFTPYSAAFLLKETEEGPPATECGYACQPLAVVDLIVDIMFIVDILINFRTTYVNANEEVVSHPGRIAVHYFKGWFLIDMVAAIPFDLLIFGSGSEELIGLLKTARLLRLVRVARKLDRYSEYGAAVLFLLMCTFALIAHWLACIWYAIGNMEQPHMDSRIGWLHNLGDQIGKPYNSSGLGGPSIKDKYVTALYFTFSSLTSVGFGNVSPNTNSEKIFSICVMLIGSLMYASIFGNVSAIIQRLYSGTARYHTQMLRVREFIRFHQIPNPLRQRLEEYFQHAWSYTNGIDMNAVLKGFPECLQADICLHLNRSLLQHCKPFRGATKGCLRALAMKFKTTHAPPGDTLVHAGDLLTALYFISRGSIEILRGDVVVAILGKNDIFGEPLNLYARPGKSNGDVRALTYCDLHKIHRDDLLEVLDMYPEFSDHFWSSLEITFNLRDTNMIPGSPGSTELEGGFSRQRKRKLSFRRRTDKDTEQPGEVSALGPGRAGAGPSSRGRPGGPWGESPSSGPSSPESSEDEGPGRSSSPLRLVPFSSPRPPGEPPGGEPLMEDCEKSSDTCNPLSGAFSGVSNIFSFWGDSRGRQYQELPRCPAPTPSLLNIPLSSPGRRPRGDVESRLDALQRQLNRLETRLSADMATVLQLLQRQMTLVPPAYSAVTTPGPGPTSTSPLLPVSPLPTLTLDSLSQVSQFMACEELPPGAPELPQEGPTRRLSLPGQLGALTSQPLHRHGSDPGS
Outline: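 Membranes from HEK cells stably expressing human ERG incubated 90 min at RT with 1.5 nmol/l 3H-dofetilide in 20 mM HEPES/0.1 mM KCl pH 7.2, inhibitor in 1% DMSO. Nonspecific binding with […] dofetilide; bound ligand separated by filtration and scintillation counted.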

T1 sequence (Q00960 27-1482, other chains not shown): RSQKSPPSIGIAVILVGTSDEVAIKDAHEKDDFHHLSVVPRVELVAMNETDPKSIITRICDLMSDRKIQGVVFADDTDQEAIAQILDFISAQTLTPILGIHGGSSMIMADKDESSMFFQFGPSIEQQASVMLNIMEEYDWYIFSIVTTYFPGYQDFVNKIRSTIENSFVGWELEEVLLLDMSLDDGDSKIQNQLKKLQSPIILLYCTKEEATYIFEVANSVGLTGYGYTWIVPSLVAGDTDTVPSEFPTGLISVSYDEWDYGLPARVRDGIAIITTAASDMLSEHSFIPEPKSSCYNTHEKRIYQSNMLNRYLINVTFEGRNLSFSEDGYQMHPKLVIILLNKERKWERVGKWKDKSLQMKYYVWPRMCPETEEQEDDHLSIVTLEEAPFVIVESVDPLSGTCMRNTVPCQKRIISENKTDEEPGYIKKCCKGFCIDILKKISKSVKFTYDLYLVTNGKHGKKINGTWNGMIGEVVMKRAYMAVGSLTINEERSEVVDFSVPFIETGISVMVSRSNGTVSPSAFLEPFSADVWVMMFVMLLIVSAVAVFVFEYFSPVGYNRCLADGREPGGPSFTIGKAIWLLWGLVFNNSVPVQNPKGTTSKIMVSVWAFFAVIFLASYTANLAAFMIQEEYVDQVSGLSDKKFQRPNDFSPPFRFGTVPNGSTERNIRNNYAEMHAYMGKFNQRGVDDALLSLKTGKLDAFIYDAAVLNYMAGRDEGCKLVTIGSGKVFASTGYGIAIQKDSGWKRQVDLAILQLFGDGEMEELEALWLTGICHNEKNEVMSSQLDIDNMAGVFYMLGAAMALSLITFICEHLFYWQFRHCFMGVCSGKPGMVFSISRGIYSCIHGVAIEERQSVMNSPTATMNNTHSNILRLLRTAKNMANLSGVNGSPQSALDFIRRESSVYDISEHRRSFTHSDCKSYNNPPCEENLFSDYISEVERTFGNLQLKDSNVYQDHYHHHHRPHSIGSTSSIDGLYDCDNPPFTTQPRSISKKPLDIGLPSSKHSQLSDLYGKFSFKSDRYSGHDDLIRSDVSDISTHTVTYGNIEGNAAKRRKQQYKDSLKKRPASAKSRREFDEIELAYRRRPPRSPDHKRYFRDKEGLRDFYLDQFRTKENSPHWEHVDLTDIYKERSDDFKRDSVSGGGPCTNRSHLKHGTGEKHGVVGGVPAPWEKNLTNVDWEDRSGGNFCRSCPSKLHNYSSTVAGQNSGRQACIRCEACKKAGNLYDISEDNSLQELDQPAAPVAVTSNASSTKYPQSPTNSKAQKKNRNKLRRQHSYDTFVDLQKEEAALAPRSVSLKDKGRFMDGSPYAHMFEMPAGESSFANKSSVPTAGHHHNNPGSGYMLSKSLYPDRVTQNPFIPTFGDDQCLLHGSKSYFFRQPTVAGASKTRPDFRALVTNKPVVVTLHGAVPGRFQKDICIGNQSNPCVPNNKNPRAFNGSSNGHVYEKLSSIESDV

SMILES | IC50 [1] [nM] | IC50 [2] [nM] | IC50 [3] [nM]
Cc1cc(-n2cc(Cn3ccnc3C(C)C)nn2)ccc1Cl [Example 71, 1-(4-Chloro-3-methyl-phenyl)-4-(2-isopropyl-imidazol-1-ylmethyl)-1H-[1,2,3]triazole] | 4.47 | 4.47 | 10000
Cc1cc(-n2cc(Cn3ccnc3CCO)nn2)ccc1Cl [Example 74, 1-(4-Chloro-3-methyl-phenyl)-4-[2-(2-hydroxy-ethyl)-imidazol-1-ylmethyl]-1H-[1,2,3]triazole] | 6.9 | 6.9 | 33800
Cc1nccn1Cc1cn(-c2cccc(C3CC3)c2)nn1 [Example 76, 1-(3-Cyclopropyl-phenyl)-4-(2-methyl-imidazol-1-ylmethyl)-1H-[1,2,3]triazole] | 15.9 | 15.9 | 10300
Cc1nccn1Cc1cn(-c2cccc(S(C)(=O)=O)c2)nn1 [Example 77, 1-(3-Methanesulfonyl-phenyl)-4-(2-methyl-imidazol-1-ylmethyl)-1H-[1,2,3]triazole] | 615 | 615 | 150000
CS(=O)(=O)c1cccc(-n2cc(Cn3ccnc3CCF)nn2)c1 [Example 80, 4-[2-(2-Fluoro-ethyl)-imidazol-1-ylmethyl]-1-(3-methanesulfonyl-phenyl)-1H-[1,2,3]triazole] | 2680 | 2680 | > 100000
CC(C)(C)c1nccn1Cc1cn(-c2ccc(F)c(C(F)F)c2)nn1 [Example 87, 1-(3-Difluoromethyl-4-fluoro-phenyl)-4-(2-tert.butyl-imidazol-1-ylmethyl)-1H-[1,2,3]triazole] | 131 | 131 | 7520
OCCc1nccn1Cc1cn(-c2ccc(F)c(C(F)F)c2)nn1 [Example 88, 1-(3-Difluoromethyl-4-fluoro-phenyl)-4-[2-(2-hydroxy-ethyl)-imidazol-1-ylmethyl]-1H-[1,2,3]triazole] | 14.5 | 14.5 | 93400
Cc1nccn1Cc1cn(-c2ccc(Cl)c(C(F)F)c2)nn1 [Example 89, 1-(4-Chloro-3-difluoromethyl-phenyl)-4-(2-methyl-imidazol-1-ylmethyl)-1H-[1,2,3]triazole] | 3.37 | 3.37 | 8520
FC(F)c1cc(-n2cc(Cn3ccnc3C3CC3)nn2)ccc1Cl [Example 90, 1-(4-Chloro-3-difluoromethyl-phenyl)-4-(2-cyclopropyl-imidazol-1-ylmethyl)-1H-[1,2,3]triazole] | 15.4 | 15.4 | 5350
CC(C)c1nccn1Cc1cn(-c2ccc(Cl)c(C(F)F)c2)nn1 [Example 92, 1-(4-Chloro-3-difluoromethyl-phenyl)-4-(2-isopropyl-imidazol-1-ylmethyl)-1H-[1,2,3]triazole] | 5.24 | 5.24 | 11300
CC(C)(C)c1nccn1Cc1cn(-c2ccc(Cl)c(OC(F)F)c2)nn1 [Example 95, 4-(2-tert-Butyl-imidazol-1-ylmethyl)-1-(4-chloro-3-difluoromethoxy-phenyl)-1H-[1,2,3]triazole] | 72.9 | 72.9 | 5840
CCc1nccn1Cc1cn(-c2ccc(Cl)c(OC(F)F)c2)nn1 [Example 96, 1-(4-Chloro-3-difluoromethoxy-phenyl)-4-(2-ethyl-imidazol-1-ylmethyl)-1H-[1,2,3]triazole] | 1.6 | 1.6 | 4410
Cc1nccn1Cc1cn(-c2ccc(F)c(OC(F)F)c2)nn1 [Example 100, 1-(3-Difluoromethoxy-4-fluoro-phenyl)-4-(2-methyl-imidazol-1-ylmethyl)-1H-[1,2,3]triazole] | 1.9 | 1.9 | 12800

Second part, led by results:

IC50 [1] [nM] | IC50 [2] [nM] | SMILES | IC50 [3] [nM]
13.5 | 13.5 | Cc1cc(-n2cc(Cn3ccnc3CCF)nn2)ccc1Cl [Example 75, 1-(4-Chloro-3-methyl-phenyl)-4-[2-(2-fluoro-ethyl)-imidazol-1-ylmethyl]-1H-[1,2,3]triazole] | 32800
4.11 | 4.11 | CCc1nccn1Cc1cn(-c2ccc(F)c(C(F)F)c2)nn1 [Example 83, 1-(3-Difluoromethyl-4-fluoro-phenyl)-4-(2-ethyl-imidazol-1-ylmethyl)-1H-[1,2,3]triazole] | 16700
2.43 | 2.43 | CCc1nccn1Cc1cn(-c2ccc(Cl)c(C(F)F)c2)nn1 [Example 91, 1-(4-Chloro-3-difluoromethyl-phenyl)-4-(2-ethyl-imidazol-1-ylmethyl)-1H-[1,2,3]triazole] | 7190
3.91 | 3.91 | FC(F)Oc1cc(-n2cc(Cn3ccnc3C3CC3)nn2)ccc1Cl [Example 94, 1-(4-Chloro-3-difluoromethoxy-phenyl)-4-(2-cyclopropyl-imidazol-1-ylmethyl)-1H-[1,2,3]triazole] | 3020
6.02 | 6.02 | FCCc1nccn1Cc1cn(-c2ccc(Cl)c(OC(F)F)c2)nn1 [Example 99, 1-(4-Chloro-3-difluoromethoxy-phenyl)-4-[2-(2-fluoro-ethyl)-imidazol-1-ylmethyl]-1H-[1,2,3]triazole] | 23800
25.9 | 25.9 | Cc1nccn1Cc1cn(-c2cc(F)cc(C(F)F)c2)nn1 [Example 102] | 16800
4.05 | 4.05 | Cc1nccn1Cc1cn(-c2ccc(F)c(C(C)(F)F)c2)nn1 [Example 105, 1-[3-(1,1-Difluoro-ethyl)-4-fluoro-phenyl]-4-(2-methyl-imidazol-1-ylmethyl)-1H-[1,2,3]triazole] | 73100
141 | 141 | Cc1nc2ccccc2n1Cc1cn(-c2ccc(Cl)c(Cl)c2)nn1 [Example 117, 1-[[1-(3,4-dichlorophenyl)triazol-4-yl]methyl]-2-methyl-benzimidazole] | 3090
263 | 263 | OCCc1nccn1Cn1cc(-c2ccc(S(F)(F)(F)(F)F)cc2)nn1 [Example 118, 2-(1-((1-(4-(pentafluoro-l6-sulfanyl)phenyl)-1H-1,2,3-triazol-4-yl)methyl)-1H-imidazol-2-yl)ethan-1-ol] | 12300
